Measured values from patent US5783178A, “Polymer linked biological agents” (Supratek Pharma. Inc., priority 1994, dated 1998).
Values after ≈ are worked out from the molar mass of the structure shown. Read-outs that look alike come from different tables or passages of the source.

How the values were obtained:
[1] = test system: Sp2-resistant cell line; experiment: Cytotoxicity towards Sp2-resistant cells (XTT); type: cell-based, murine; conditions: Mus musculus, Example 7
[2] = test system: Sp2-resistant myeloma cells; experiment: Tumor treatment, Sp2-resistant tumors; type: in vivo, female Balb C mice; conditions: i.v. at MTD
[3] = test system: SKVLB cell line (SK-resistant cells); experiment: Cytotoxicity towards SK-resistant cells (XTT); type: cell-based
[4] = test system: murine myeloma cell line Sp2/0 (Sp2); experiment: Cytotoxicity towards Sp2 cells (XTT); type: cell-based; conditions: Mus musculus, Example 7
[5] = test system: SKOV3 line of transformed cells (SK cells); experiment: Cytotoxicity towards SK cells (XTT); type: cell-based; conditions: Homo sapiens
[6] = test system: MCF-7AU; experiment: Micellar agent delivery, cytotoxicity against MCF-7AU; type: cell-based; conditions: Homo sapiens
[7] = in vivo; conditions: mouse, ip
[8] = test system: MCF-7 line of human breast cancer cells; experiment: Micellar agent delivery, cytotoxicity against MCF-7; type: cell-based; conditions: MCF7
[9] = test system: Dox-MCF-7; experiment: Micellar agent delivery, cytotoxicity against Dox-MCF-7; type: cell-based; conditions: Homo sapiens
[10] = Solution stability in PBS (dissolved daunorubicin monitored by fluorescence); type: physicochemical; conditions: 37°, PBS pH 7.0, 0.2 μM
[11] = test system: Sp2 myeloma cell line; experiment: Tumor treatment, Sp2 tumors; type: in vivo, female Balb C mice; conditions: i.v. at MTD
[12] = test system: SK cells; experiment: Activity of conjugated TNFα on SK cells (XTT); type: cell-based; conditions: 24 hours

**Q.** What does the source list for COc1cccc2c1C(=O)c1c(O)c3c(c(O)c1C2=O)C[C@@](O)(C(C)=O)C[C@@H]3O[C@H]1C[C@H](N)[C@H](O)[C@H](C)O1 [Free daunorubicin, daunorubicin]?
**A.** IC50 [1]: 2.6 µg/mL (≈ 4.93 µM); V/V0 ([2]; day 0 after first treatment): 1; V/V0 ([2]; day 3 after first treatment): 2.7; V/V0 ([2]; day 6 after first treatment): 3.4; V/V0 ([2]; day 8 after first treatment): 5.1; V/V0 ([2]; day 10 after first treatment): 6.6; V/V0 ([2]; day 13 after first treatment): 11.6; V/V0 ([2]; day 16 after first treatment): 20.9; V/V0 ([2]; day 20 after first treatment): 25.9; V/V0 ([2]; day 23 after first treatment): 38.4; V/V0 ([2]; day 27 after first treatment): 50.9; V/V0 ([2]; day 31 after first treatment): 68.3; V/V0 ([2]; day 34 after first treatment): 73.0; V/V0 ([2]; day 38 after first treatment): 83.4; V/V0 ([2]; day 42 after first treatment): 113.8; V/V0 ([2]; day 45 after first treatment): 111.9; IC50 ([3]; Example 5, 1 h exposure, 4 days culture, daunorubicin content basis): 2.55 µg/mL (≈ 4.83 µM); IC50 ([3]; Example 6, methods of Example 5): 45 µg/mL (≈ 85.3 µM); IC50 [4]: 0.22 µg/mL (≈ 0.417 µM); IC50 ([5]; SK-OV-3, Example 5, 1 h exposure, 4 days culture, daunorubicin content basis, read-out: IC50): 0.32 µg/mL (≈ 0.607 µM); IC50 ([5]; SK-OV-3, Example 6, methods of Example 5): 5.2 µg/mL (≈ 9.86 µM); inhibition at 0.016 µg/mL [6]: 3%; inhibition at 0.08 µg/mL [6]: 9%; inhibition at 0.4 µg/mL [6]: 37%; inhibition at 2 µg/mL [6]: 65%; inhibition at 10 µg/mL [6]: 89%; inhibition at 50 µg/mL [6]: 100%; LD50 at 336 h [7]: 7 mg/kg; MTD at 336 h [7]: 5 mg/kg; inhibition at 0.016 µg/mL [8]: 15%; inhibition at 0.08 µg/mL [8]: 43%; inhibition at 0.4 µg/mL [8]: 69%; inhibition at 2 µg/mL [8]: 91%; inhibition at 10 µg/mL [8]: 100%; inhibition at 50 µg/mL [8]: 100%; inhibition at 0.016 µg/mL [9]: 2%; inhibition at 0.08 µg/mL [9]: 7%; inhibition at 0.4 µg/mL [9]: 39%; inhibition at 2 µg/mL [9]: 62%; inhibition at 10 µg/mL [9]: 86%; inhibition at 50 µg/mL [9]: 100%; I585 (% of initial) ([10]; 0 hours incubation): 100 % of initial; remaining at 6 h, 0.2 µM ([10]; 6 hours incubation, read-out: I585 (% of initial)): 92%; remaining at 27 h, 0.2 µM ([10]; 27 hours incubation, read-out: I585 (% of initial)): 89%; remaining at 43 h, 0.2 µM ([10]; 43 hours incubation, read-out: I585 (% of initial)): 68%; remaining at 78 h, 0.2 µM ([10]; 78 hours incubation, read-out: I585 (% of initial)): 54%; remaining at 120 h, 0.2 µM ([10]; 120 hours incubation, read-out: I585 (% of initial)): 37%; V/V0 ([11]; day 0 after first treatment): 1; V/V0 ([11]; day 4 after first treatment): 1.5; V/V0 ([11]; day 7 after first treatment): 2.4; V/V0 ([11]; day 12 after first treatment): 8.8; V/V0 ([11]; day 14 after first treatment): 10.9; V/V0 ([11]; day 17 after first treatment): 16.8; V/V0 ([11]; day 21 after first treatment): 17.5; V/V0 ([11]; day 25 after first treatment): 16.1; V/V0 ([11]; day 28 after first treatment): 15.8; V/V0 ([11]; day 32 after first treatment): 15.9; V/V0 ([11]; day 35 after first treatment): 15.7

**Q.** With human tumor necrosis factorα [TNFα] as the compound, how does the “Inhibition, % (± SD)” value ([12]; TNFα concentration 0.01 (unit not given)) read?
**A.** 0%

**Q.** And the “Inhibition, % (± SD)” value ([12]; TNFα concentration 0.05 (unit not given))?
**A.** 2 (± 2) %

**Q.** And the “Inhibition, % (± SD)” value ([12]; TNFα concentration 0.2 (unit not given))?
**A.** 5 (± 3) %

**Q.** What about the “Inhibition, % (± SD)” value ([12]; TNFα concentration 1.0 (unit not given)) of the same compound?
**A.** 4 (± 4) %

**Q.** What about the “Inhibition, % (± SD)” value ([12]; TNFα concentration 5 (unit not given)) of the same compound?
**A.** 10 (± 5) %

**Q.** What about the “Inhibition, % (± SD)” value ([12]; TNFα concentration 20 (unit not given)) of the same compound?
**A.** 22 (± 5) %

**Q.** What about the “Inhibition, % (± SD)” value ([12]; TNFα concentration 50 (unit not given)) of the same compound?
**A.** 35 (± 7) %

**Q.** And the “Inhibition, % (± SD)” value ([12]; TNFα concentration 100 (unit not given))?
**A.** 44 (± 6) %

**Q.** What about the “Inhibition, % (± SD)” value ([12]; TNFα concentration 200 (unit not given)) of the same compound?
**A.** 80 (± 14) %
